These results are taken from patent US10287617B2, “Methods for in vitro—in vivo efficacy determination” (COLORADO STATE UNIVERSITY RESEARCH FOUNDATION, priority 2014, dated 2019).

For one test, the system named is M. tuberculosis Erdman. Type of test: in vivo. As to conditions: SB-P17G-A20 50 mg/kg IP bid, INH 20 mg/kg IP qd, days 5 to 14 post-infection.
Test [1] deals with M. tuberculosis H37Rv. Type of test: cell-based. The conditions noted are these: SB-P17G-A20 with rifampicin.
The test system of test [2] is M. tuberculosis H37Rv. In kind it is cell-based, Mycobacterium tuberculosis. The conditions noted are these: 2×10^9 cells plated on 1.6 μg/mL (10 times MIC).

Where “and” joins values, the source holds several entries; their conditions need not be identical. Equal values may be shown once.

Turning to `NNC(=O)c1ccncc1` [Isoniazid, reference compound], in the test with M. tuberculosis Erdman, the “reduction in bacterial load in the lungs” value is on record as “below the level of detection” and the “reduction in bacterial load in the spleen” value (“reduction … in the spleen” for short) was “below the level of detection”.
Regarding `CN(C)c1cc2nc(C3CCCCC3)[nH]c2cc1NC(=O)c1ccc(OC(F)(F)F)cc1` [SB-P17G-A20], in the test on M. tuberculosis H37Rv [1], the “enhancement of activity in the presence of the other drug” value is given as 2-4 fold and the ΣFIC is on record as 0.75. In addition, in the test on M. tuberculosis Erdman, the “reduction in bacterial load in the lungs” value is 1.73±0.24 log10 CFU and 1.73 log10 CFU; the “reduction … in the spleen” value was 2.68 log10 CFU and 2.68±0.48 log10 CFU. Also, the spontaneous resistant mutants result in the test on M. tuberculosis H37Rv [2] is on record as “No mutants where observed”.
Turning to `CCCCOC(=O)Nc1cc2nc(C3CCCCC3)[nH]c2cc1N(C)C` [SB-P17G-C2], in the test with M. tuberculosis Erdman, the “reduction in bacterial load in the lungs” value is given as “no significant reduction” and the “reduction … in the spleen” value is “no significant reduction”.
